{
  "source": "patent US9834514B2",
  "about": "“Antibiotic sensitivity-restoring and photosensitive agents” (New Mexico Tech Research Foundation, priority 2015, dated 2017)",
  "key": {"MRSA [1]": {"test_system": "MRSA", "test": "MIC of a compound of the invention and ampicillin, alone and in combination", "format": "cell-based", "excerpt": "Compounds of the invention can increase the potency of antibiotics. […] The ability of compounds of the invention to synergize with structurally and mechanistically unrelated antibiotics can be a result of the inhibition of bacterial efflux."}, "VRE": {"test_system": "VRE", "test": "MIC against VRE", "format": "cell-based, Enterococcus faecalis", "protocol": "In a 12×75 mm borosilicate glass culture tube, 1 mL of cell suspension was added. Then, compound 7 was added to the cells, and the samples were mixed using a vortex mixer. […] The samples were incubated overnight at 37° C. on a rotary shaking incubator at 100 rpm."}, "MRSA [2]": {"test_system": "MRSA", "test": "Minimum bactericidal concentration (MBC) with and without white light", "format": "cell-based, S. aureus", "settings": "Staphylococcus aureus, light or radiation study", "protocol": "The bacterial media was inoculated with bacteria and incubated overnight. The bacterial cultures were diluted to 5×10^8 CFU/mL using a McFarland latex turbidity standard (0.5). Compound 1 was diluted with sterile DMSO, which was added to the cell suspension in glass culture tubes. The cells were then incubated for 30 minutes at 37° C. on a rotary shaking incubator at 150 rpm. 500 μL of the treated cell suspension was added to a well on a sterile ceramic drop plate. Non-coherent white light from a Lumacare™ LC-122 unit was used to irradiate the samples. The end of the light probe was placed 3 cm above the sample well, perpendicular to the surface of the sample, and light was applied for 2 minutes (15 seconds light, 15 seconds dark). 200 μL of the irradiated sample was transferred to a 96-well plastic microtiter plate and five ten-fold dilutions were made in the media. 10 μL of each dilution was dripped onto an agar media plate and was allowed to streak down the plate by tilting the plate down. The agar plates were incubated at 37° C. overnight and colony counts were performed to calculate the CFU/mL.\nTABLE 14 details the MBC values of compounds 1-6 against MRSA with and without irradiation with white light. Irradiation involved treatment with a LumaCare™ light source at 3 cm from media for 1 min."}, "[3]": {"test_system": "MES-SA/Dx5 (human uterine sarcoma grown in presence of doxorubicin)", "test": "Light-activated killing of cell lines (IC50 with/without light)", "format": "cell-based", "settings": "Homo sapiens", "protocol": "(§1) TABLE 15 depicts the IC50 of compounds in the presence or absence of light for human cell lines. The cell lines used were HeLa (human cervical adenocarcinoma), U-87 MG (human brain gliobastoma), MES-SA (human uterine sarcoma), MES-SA/D×5 (human uterine sarcoma grown in presence of doxorubicin), NCI-H441 (human lung papillary adenocarcinoma), A549 (human lung carcinoma), WI-38 (human embryonic lung normal), MCF7 (human breast adenocarcinoma), SW1088 (human brain astrocytoma), B16F10 (mouse skin melanoma), NIH-3T3 (mouse fibroblast), and Jurkat (human lymphoblastoma). “1-Sol” in TABLE 15 was generated by dissolving compound 1 and potassium hydroxide at a 1:1 ratio in a DMSO/water solution. The cells were irradiated with continuous white light using a LumaCare™ light source for 2 minutes at a distance of 6.5 cm from the cells."}, "[4]": {"test_system": "U-87 MG (human brain gliobastoma)", "test": "Light-activated killing of cell lines (IC50 with/without light)", "format": "cell-based", "protocol": "as §1"}, "S. aureus (ATCC 29213) [5]": {"test_system": "S. aureus (ATCC 29213)", "test": "MIC against drug sensitive S. aureus", "format": "cell-based", "settings": "Staphylococcus aureus, ATCC29213; ATCC 29213; read-out: S. aureus MIC"}, "[6]": {"test": "MIC against MRSA isolates", "format": "cell-based, S. aureus", "settings": "Staphylococcus aureus", "protocol": "The MICs of S. aureus ATCC 33591, BAA-44, BAA-1707, BAA-1717, BAA-1720, BAA-1747, BAA-1754, BAA-1761, BAA-1763, BAA-1764, and BAA-1766 were measured using a cell concentration of about 5×10^5 colony forming units (CFU)/mL. In a 96-well microtiter plate, two-fold dilutions were made of each drug (starting with 100 μM) in 100 μL of a cell suspension in trypticase soy broth (TSB). The samples were incubated overnight at 37° C. on a rotary shaking incubator set at 100 revolutions per minute (rpm) and were visually inspected for turbidity. A 20% well-volume of 3-(4,5-dimethylthiazol-2-yl)-2,5-diphenyltetrazolium bromide (MTT reagent, 5 mg/mL) was added, and the samples were incubated for about 20 minutes. The MICs were determined as the lowest concentration at which full visual inhibition was observed by the unaided eye."}, "S. aureus (ATCC 29213) [7]": {"test_system": "S. aureus (ATCC 29213)", "test": "microbe, parasite or virus in culture", "format": "cell-based", "settings": "for MIC: Staphylococcus aureus", "protocol": "Each mixture was incubated at 37° C. on a rotary shaking incubator for about 16 hours. MTT was then added to assess the viability of the cells (at 10% well volume). […] The cells were then streaked onto a TSA plate and incubated overnight at 37° C. These steps were repeated to reach a total of 30 exposures."}},
  "note": "Read-outs that look alike come from different tables or passages of the source.",
  "data": [
    {"smiles": "CC1(C)S[C@@H]2[C@H](NC(=O)[C@H](N)c3ccccc3)C(=O)N2[C@H]1C(=O)O", "note": "[Ampicilin, ampicillin]", "values": [
      {"measurement": "fold decrease in concentration in combination", "setting": "MRSA [1]; combination versus alone", "result": 8, "unit": "fold"},
      {"measurement": "concentration needed for full killing in combination", "setting": "MRSA [1]; compound used in combination with ampicillin", "result": "about 572 μM"},
      {"measurement": "mean inhibitory concentration (MIC), alone", "setting": "MRSA [1]; single agent", "result": "about 4579 μM"},
      {"measurement": "S/R", "setting": "VRE; TABLE 24", "result": "S"},
      {"measurement": "MIC", "setting": "VRE; common antibiotics, TABLE 24", "result": "2 to 4", "unit": "µg/mL"}
    ]},
    {"smiles": "Fc1ccc(/C=C/c2[nH]c3ccccc3c2/C=C/c2ccc(F)cc2)cc1", "note": "[Compound 4]", "values": [
      {"measurement": "MBC", "setting": "MRSA [2]; 1 min, LumaCare light source at 3 cm from media for 1 min, read-out: MBC with irradiation", "result": 0.5, "unit": "µM"},
      {"measurement": "MBC", "setting": "MRSA [2]; no irradiation, read-out: MBC in the dark", "result": 100, "unit": "µM"},
      {"measurement": "IC50", "setting": "[3]; MES-SA/Dx5, 2 min, MES-SA/Dx5 (no doxorubicin), white light 2 minutes, read-out: Compound + light IC50", "result": "1.31 ± 0.51", "unit": "µM"},
      {"measurement": "IC50", "setting": "[3]; MES-SA/Dx5, 2 min, MES-SA/Dx5 + doxorubicin, white light 2 minutes, read-out: Compound + light IC50", "result": "0.67 ± 0.01", "unit": "µM"},
      {"measurement": "IC50", "setting": "[3]; MES-SA/Dx5, MES-SA/Dx5 (no doxorubicin), no light, read-out: Compound IC50", "result": "57.2 ± 10.3", "unit": "µM"},
      {"measurement": "IC50", "setting": "[3]; MES-SA/Dx5, MES-SA/Dx5 + doxorubicin, no light, read-out: Compound IC50", "result": "40.9 ± 1.36", "unit": "µM"},
      {"measurement": "IC50", "setting": "[4]; 2 min, white light 2 minutes, read-out: Compound + light IC50", "result": "1.01 ± 0.16", "unit": "µM"},
      {"measurement": "IC50", "setting": "[4]; no light, read-out: Compound IC50", "result": "42.6 ± 5.53", "unit": "µM"}
    ]},
    {"smiles": "CCn1cc(C(=O)O)c(=O)c2cc(F)c(N3CCNCC3)cc21", "note": "[Norfloxacin, reference compound]", "values": [
      {"measurement": "MIC", "setting": "S. aureus (ATCC 29213) [5]", "result": "1.25 to 2.5", "unit": "µg/mL"},
      {"measurement": "MIC", "setting": "[6]; MRSA (ATCC BAA-44), TABLE 21, read-out: MRSA MIC", "result": 100, "unit": "µg/mL"},
      {"measurement": "MIC", "setting": "[6]; antibiotics, MRSA isolate ATCC 33591, read-out: MIC", "result": 25, "unit": "µg/mL"},
      {"measurement": "MIC", "setting": "[6]; antibiotics, MRSA isolate ATCC BAA-44, read-out: MIC", "result": 100, "unit": "µg/mL"},
      {"measurement": "MIC", "setting": "[6]; antibiotics, MRSA isolate ATCC BAA-1707, read-out: MIC", "result": "< 3.1", "unit": "µg/mL"},
      {"measurement": "MIC", "setting": "[6]; antibiotics, MRSA isolate ATCC BAA-1720, read-out: MIC", "result": "> 100", "unit": "µg/mL"},
      {"measurement": "MIC", "setting": "[6]; antibiotics, MRSA isolate ATCC BAA-1747, read-out: MIC", "result": 6.3, "unit": "µg/mL"},
      {"measurement": "MIC", "setting": "[6]; antibiotics, MRSA isolate ATCC BAA-1754, read-out: MIC", "result": "< 3.1", "unit": "µg/mL"},
      {"measurement": "MIC", "setting": "[6]; antibiotics, MRSA isolate ATCC BAA-1761, read-out: MIC", "result": "> 100", "unit": "µg/mL"},
      {"measurement": "MIC", "setting": "[6]; antibiotics, MRSA isolate ATCC BAA-1763, read-out: MIC", "result": "> 100", "unit": "µg/mL"},
      {"measurement": "MIC", "setting": "[6]; antibiotics, MRSA isolate ATCC BAA-1764, read-out: MIC", "result": "< 3.1", "unit": "µg/mL"},
      {"measurement": "MIC", "setting": "[6]; antibiotics, MRSA isolate ATCC BAA-1766, read-out: MIC", "result": "< 3.1", "unit": "µg/mL"},
      {"measurement": "Resistance Evolved", "setting": "S. aureus (ATCC 29213) [7]", "result": "Yes"},
      {"measurement": "MIC", "setting": "S. aureus (ATCC 29213) [7]; ATCC29213, read-out: Final MIC Apr. 16, 2015", "result": "> 16", "unit": "µM"},
      {"measurement": "MIC", "setting": "S. aureus (ATCC 29213) [7]; ATCC29213, read-out: Initial MIC Mar. 10, 2015", "result": 2, "unit": "µM"},
      {"measurement": "MIC", "setting": "VRE; Enterococcus, TABLE 23, read-out: VRE MIC", "result": 2.5, "unit": "µg/mL"},
      {"measurement": "MIC", "setting": "VRE; Enterococcus, common antibiotics, TABLE 24, read-out: MIC", "result": 1, "unit": "µg/mL"},
      {"measurement": "S/R", "setting": "VRE; TABLE 24", "result": "S"}
    ]}
  ]
}
